Columns and labels:
[1] = system: SMI-32 immunoreactive neurons of lumbar spinal cord slices; experiment: Neuroprotection assay in spinal cord slice preparations (THA-induced cell death); format: cell-based, Sprague-Dawley rat; conditions: THA 200 μM + compound 10 μM
Experimental: All cultures were derived from postnatal day 8 (P8) Sprague-Dawley rat lumbar spinal cord slices of 325 micrometer thickness, prepared using a commercially available McIlwain tissue chopper. Each experiment consisted of two 6-well plates with 5 slices from 4 different animals per well. Media changes were performed every 3 to 4 days. Cultures were treated with THA [L(−)-threo-3-hydroxyaspartic acid; Tocris Cookson Inc., Ballwin, Mo.] at 200 μM+compound (10 μM) after one week in culture. The control was an untreated sample with 0.1% DMSO as vehicle. The THA control was a THA treated sample with 0.1% DSMO as vehicle. Two wells were used per condition. One media change with new THA and compounds was performed. […]
Slices were permeabilized with 100% cold methanol for 10 minutes, subsequently washed 3×in 0.1M phosphate buffer and transferred to staining wells. […] Quantification of surviving neurons was performed on a Zeiss Axiovert microscope. Neuronal survival was determined by observing an intact neuronal cell body with processes located ventrally of the central canal in each hemisphere. […] Each hemisphere was counted individually. The statistics were performed with StatView™ software on a minimum of three different experiments per condition and significance was determined as compared to THA control. […]

[2] = target: T1, recombinant rat CyPA-GST fusion protein (Rattus norvegicus, UniProt P10111); experiment: Semiautomated microtiter plate assay of rotamase activity inhibition, rat CyPA-GST fusion protein; format: biochemical; conditions: Table B, value with asterisk: recombinant rat CyPA-GST fusion protein
T1 construct: made in house; host or cells: E. coli BL21
T1 sequence (P10111 2-164): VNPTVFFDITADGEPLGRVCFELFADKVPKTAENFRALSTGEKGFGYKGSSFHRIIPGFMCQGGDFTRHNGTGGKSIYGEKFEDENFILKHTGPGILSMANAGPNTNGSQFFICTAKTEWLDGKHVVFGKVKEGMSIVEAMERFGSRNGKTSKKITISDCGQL
Experimental: (§1) The Cyclophilin utilized was a human recombinant CyPA, [Yoo et al., J. Mol. Biol., 269 (1997) 780-95].
The resulting fragment (573 base pairs) was cloned into pCRII and amplified. The CyP sequence was cut out with Sma1 and EcoR1 and cloned into the Sma1/EcoR1 sites in pGEX2TK (Pharmacia). This plasmid was transformed into BL21 E. coli cells for expression of the GST-CyPA fusion protein.
Rotamase inhibition was determined using a semiautomated microtiter plate assay modification of the above described assay [see Küllertz et al., Clin. Chem. 44, 502-508 (1998)]. All dilutions of CyPA, peptide substrate, and chymotrypsin were made in 35 mM ice-cold HEPES buffer. Fifty μL of CyPA solution is added to 50 μL of the peptide substrate solution (Phe-Pro-Phe p-nitroanilide, 0.16 mg/ml) in a glass microtiter well plate (the concentration of human recombinant CyP being adjusted so that the reaction rate is increased by a factor of 3 as compared to an uncatalyzed control reaction wherein the peptide substrate is degraded by chymotrypsin alone, in the absence of CyPA and test compound). Using a Beckman Multimek™ 96 automated 96-channel pipettor, 5 μL of test compound solution, or a DMSO blank, were added to each well for a 30 minute preincubation at 4° C. One hundred μL of chymotrypsin solution (1 mg/mL) were added to each well and the absorbance at 390 nm versus time was monitored for 9-10 minutes using a BioRad Ultramark plate reader maintained at 4° C. and the rate constants were determined from the absorbance versus time data files.
IC50 values which were obtained for representative compounds are presented in the following Table B. The cyclophilin utilized was a human recombinant CyPA. […] While CyP A was used in these examples, other CyP proteins can be substituted.

[3] = target: T1, recombinant rat CyPA-GST fusion protein; experiment: Rotamase (PPIase) inhibition, chymotrypsin-coupled cuvette assay, rat CyPA-GST fusion protein; format: biochemical; conditions: Table A, value with asterisk: recombinant rat CyPA-GST fusion protein
human recombinant CyPA = human recombinant CyPA (Homo sapiens, UniProt P62937); experiment: Rotamase (PPIase) inhibition, chymotrypsin-coupled cuvette assay, human recombinant CyPA; format: biochemical; conditions: Table A, value without asterisk: human recombinant CyPA
Sequence of human recombinant CyPA (P62937 whole entry): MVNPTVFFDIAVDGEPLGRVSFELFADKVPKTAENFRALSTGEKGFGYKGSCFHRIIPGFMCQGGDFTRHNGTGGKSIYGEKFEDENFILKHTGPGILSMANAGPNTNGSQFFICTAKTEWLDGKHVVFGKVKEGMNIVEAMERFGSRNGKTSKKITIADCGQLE
Text: A number of substrates for rotamase are known in the art or can be derived from those known. Typically, the substrate contacts a sample containing a protein with rotamase activity and the conversion of the substrate is detected after a period of time. The method for detecting conversion of the substrate will vary with the particular substrate chosen. One method has been termed the Ki test (See Harding, et al., Nature, 341:758-760 (1989); and Holt et al., J. Am. Chem. Soc., 115:9923-9938). The cis-trans isomerization of an alanine-proline bond in a model substrate, N-succinyl-Ala-Ala-Pro-Phe-p-nitroanilide (SEQ ID NO: 1), is monitored spectrophotometrically in a chymotrypsin-coupled assay. The action of chymotrypsin releases p-nitroaniline from only the trans form of the substrate. The amount of p-nitroaniline can be monitored in a spectrophotometer, for example. Other methods of detecting the presence of p-nitroaniline can also be used. The inhibition of this reaction caused by different concentrations of inhibitor is determined and the data are analyzed as a change in first-order rate constant as a function of inhibitor concentration, which yields the Ki value.
The following were added to a plastic cuvette: 950 μl of ice cold assay buffer (25 mM HEPES, pH 7.8, 100 mM NaCl), 10 μL of CyP A (2.5 μM in 10 mM Tris-Cl pH 7.5, 100 mM NaCl, 1 mM dithiothreitol), 25 μL of chymotrypsin (50 mg/ml in 1 mM HCl), and 10 μL of test compound, at various concentrations, in dimethyl sulfoxide. The reaction was initiated by the addition of 5 μL of substrate (succinyl-Ala-Phe-Pro-Phe-para-nitroanilide (SEQ ID NO: 1), 5 mg/mL in 470 mM LiCl in trifluoroethanol). The absorbance at 390 nm versus time was monitored for 90 seconds using a spectrophotometer and the rate constants were determined from the absorbance versus time data files.
The IC50 values which were obtained for representative compounds are given in the following Table A, and refer to the concentration that inhibits 50% of the rotamase activity in a sample.
as §1

SMILES | protection from THA-induced cell death [1] | SMI-32 immunoreactive neurons per ventral hemisphere ([1]; untreated control 26.4±4.2, THA control 18.97±2.04 (mean±standard error)) | IC50 [2] | IC50 [3] | melting point | IC50 (human recombinant CyPA)
O=C(Nc1ccc(Cl)c(Cl)c1)c1cc(OCc2ccccc2)cc(C(=O)Nc2ccc(Cl)c(Cl)c2)c1 [Compound 43] | complete protection | 28.14±2.4 cells/ventral hemisphere | 0.287 µM | 0.377 µM |  | 
O=C(Nc1cc(OCc2cccc3ccccc23)ccc1Br)c1cccc(C(F)(F)F)c1 [Compound 34, N-[2-bromo-5-(naphthylmethoxy)phenyl][3-(trifluoromethyl)phenyl]formamide] |  |  | 9.72 µM | 12 µM | 125 to 127 °C | 11.7 µM
